Assays:
[1] = test system: HCV replicon; assay: HCV replicon assay (Huh-Luc cells, luciferase read-out); type: cell-based, HCV type Ib; settings: Hepatitis C virus, 72 h, three days incubation, luciferase activity
From the text: The compounds of formula (I) were examined for inhibitory activity in the HCV replicon. This cellular assay is based on a bicistronic expression construct, as described by Lohmann et al. (1999) Science vol. 285 pp. 110-113 with modifications described by Krieger et al. (2001) Journal of Virology 75: 4614-4624, in a multi-target screening strategy.
In essence, the method was as follows:
The assay utilized the stably transfected cell line Huh-7 luc/neo (hereafter referred to as Huh-Luc). This cell line harbors an RNA encoding a bicistronic expression construct comprising the wild type NS3-NS5B regions of HCV type Ib translated from an Internal Ribosome Entry Site (IRES) from encephalomyocarditis virus (EMCV), preceded by a reporter portion (FfL-luciferase), and a selectable marker portion (neo^R, neomycine phosphotransferase). The construct is flanked by 5′ and 3′ NTRs (non-translated regions) from HCV type Ib. Continued culture of the replicon cells in the presence of G418 (neo^R) is dependent on the replication of the HCV RNA. The stably transfected replicon cells that express HCV RNA, which replicates autonomously and to high levels, encoding inter alia luciferase, were used for screening the antiviral compounds.
The replicon cells were plated in 384 well plates in the presence of the test and control compounds which were added in various concentrations. Following an incubation of three days, HCV replication was measured by assaying luciferase activity (using standard luciferase assay substrates and reagents and a Perkin Elmer ViewLux™ ultraHTS microplate imager). Replicon cells in the control cultures have high luciferase expression in the absence of any inhibitor. The inhibitory activity of the compound on luciferase activity was monitored on the Huh-Luc cells, enabling a dose-response curve for each test compound. EC50 values were then calculated, which represent the amount of compound required to decrease the level of detected luciferase activity by 50%, or more specifically, to reduce the ability of the genetically linked HCV replicon RNA to replicate.

[2] = Cytotoxicity (Huh-7); type: cell-based; settings: human, Huh-7 cells
From the text: The in vitro antiviral activity against HCV of the compounds of formula I can be tested in a cellular HCV replicon system based on Lohmann et al. (1999) Science 285:110-113, with the further modifications described by Krieger et al. (2001) Journal of Virology 75: 4614-4624 (incorporated herein by reference), which is further exemplified in the examples section. This model, while not a complete infection model for HCV, is widely accepted as the most robust and efficient model of autonomous HCV RNA replication currently available. It will be appreciated that it is important to distinguish between compounds that specifically interfere with HCV functions from those that exert cytotoxic or cytostatic effects in the HCV replicon model, and as a consequence cause a decrease in HCV RNA or linked reporter enzyme concentration. Assays are known in the field for the evaluation of cellular cytotoxicity based for example on the activity of mitochondrial enzymes using fluorogenic redox dyes such as resazurin. Furthermore, cellular counter screens exist for the evaluation of non-selective inhibition of linked reporter gene activity, such as firefly luciferase. Appropriate cell types can be equipped by stable transfection with a luciferase reporter gene whose expression is dependent on a constitutively active gene promoter, and such cells can be used as a counter-screen to eliminate non-selective inhibitors.

Row | SMILES | EC50 [1] [µM] | CC50 [2] [µM]
1 | COC(=O)N[C@H](C(=O)N1CCC[C@H]1c1nc(-c2ccc(Oc3ccc(OC)c(-c4c[nH]c([C@@H]5CCCN5C(=O)[C@@H](NC(=O)OC)C(C)C)n4)c3)cc2)c[nH]1)C(C)C [Example 45] | 0.0627 | 1.66
2 | COC(=O)NC(C(=O)N1CCC[C@H]1c1nc(-c2ccc(Oc3ccc(OC)c(-c4cnc([C@@H]5CCCN5C(=O)C(NC(=O)OC)c5ccccc5)[nH]4)c3)cc2)c[nH]1)c1ccccc1 (stereo partly drawn) [Example 46] | > 0.98 | > 98.4
3 | O=C(Cc1ccccc1)N1CCC[C@H]1c1ncc(-c2ccc(Oc3ccc(-c4cnc([C@@H]5CCCN5C(=O)Cc5ccccc5)[nH]4)cc3)cc2)[nH]1 [Example 49] | 1.12 | > 31.5
